Results as given in patent publication US8586611B2 (priority 2005, dated 2013).

Experiments:
Type in all cases: in vivo
[1] = system: Pseudoperonospora cubensis; experiment: Test A: cucumber downy mildew, spray the day before inoculation (disease rating, 100 = 100% disease control)
Source text: The test compounds were first dissolved in acetone in an amount equal to 3% of the final volume and then suspended at the desired concentration (in ppm) in acetone and purified water (50/50 mix by volume) containing 250 ppm of the surfactant Trem® 014 (polyhydric alcohol esters). The resulting test suspensions were then used in tests A-E. Spraying a 200 ppm test suspension to the point of run-off on the test plants was the equivalent of a rate of 500 g/ha.
The test suspension was sprayed to the point of run-off on cucumber seedlings. The following day the seedlings were inoculated with a spore suspension of Pseudoperonospora cubensis (the causal agent of cucumber downy mildew) and incubated in a saturated atmosphere at 20° C. for 24 h, and then moved to a growth chamber at 20° C. for 6 days, after which disease ratings were made.
Results for Tests A-F are given in Table A. In the table, a rating of 100 indicates 100% disease control and a rating of 0 indicates no disease control (relative to the controls). A dash (-) indicates no test results.

Plasmopara viticola = experiment: Test B: grape downy mildew, spray 24 h after inoculation (disease rating, 100 = 100% disease control)
In short: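 Grape seedlings were inoculated with Plasmopara viticola and held 24 h saturated at 20 °C, then sprayed to run-off with compound suspension (acetone/water with 250 ppm Trem 014; 200 ppm ≈ 500 g/ha). After 5 days at 20 °C and 24 h saturation, disease was rated from 0 to 100% control versus untreated.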

Phytophthora infestans [2] = experiment: whole plant or invertebrate; conditions: tomato late blight
[3] = system: Erysiphe graminis f. sp. tritici; experiment: Test E: wheat powdery mildew, spray the day before inoculation (disease rating, 100 = 100% disease control)
In short: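 Wheat seedlings sprayed to run-off with compound suspended in acetone/water 50/50 with 250 ppm Trem 014 (200 ppm equivalent to 500 g/ha); inoculated next day with Erysiphe graminis f. sp. tritici spore dust. Kept 7 days at 20° C, then rated 0–100% disease control versus controls.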

Phytophthora infestans [4] = experiment: whole plant or invertebrate; conditions: tomato late blight; spray 17 h after inoculation; tested at 40 ppm
[5] = spray the day before inoculation, compounds without asterisk (not 40 or 10 ppm)
[6] = spray 24 h after inoculation, compounds without asterisk (not 40 or 10 ppm)
[7] = sprayed the day before inoculation, unmarked compounds (no asterisk, not 40 or 10 ppm)
[8] = spray the day before inoculation, tested at 40 ppm

| Molecule | Test A disease rating (100 = 100% disease control, 0 = no disease control) [1, 5] | Test B disease rating (100 = 100% disease control, 0 = no disease control) (Plasmopara viticola; [6]) | Test C disease rating (100 = 100% disease control, 0 = no disease control) (Phytophthora infestans [2]; [5]) | Test E disease rating (100 = 100% disease control, 0 = no disease control) [3, 5] | Test A disease rating (100 = 100% disease control, 0 = no disease control) [1, 7] | Test B disease rating (100 = 100% disease control, 0 = no disease control) (Plasmopara viticola; sprayed 24 h after inoculation, unmarked compounds (no asterisk, not 40 or 10 ppm)) | Test C disease rating (100 = 100% disease control, 0 = no disease control) (Phytophthora infestans [2]; [7]) | Test E disease rating (100 = 100% disease control, 0 = no disease control) ([3]; sprayed the day before inoculation, 7 days at 20° C., unmarked compounds (no asterisk, not 40 or 10 ppm)) | Test B disease rating (100 = 100% disease control, 0 = no disease control) (Plasmopara viticola; spray 24 h after inoculation, tested at 40 ppm) | Test C disease rating (100 = 100% disease control, 0 = no disease control) (Phytophthora infestans [2]; [8]) | Test D disease rating (100 = 100% disease control, 0 = no disease control) (Phytophthora infestans [4]) | Test E disease rating (100 = 100% disease control, 0 = no disease control) [3, 8] |
| --- | --- | --- | --- | --- | --- | --- | --- | --- | --- | --- | --- | --- |
| 2-[4-[(2,5-dimethylphenyl)acetyl]-1-piperazinyl]-N-methyl-N-[(1R)-1-phenylethyl]-5-thiazolecarboxamide [Compound 74] | 0% | 14% | 0% | 21% | – | – | – | – | – | – | – | – |
| C[C@H](c1ccccc1)N(C)C(=O)c1csc(C2CCN(C(=O)Cc3cc(F)cc(F)c3)CC2)n1 [compound 37] | 85% | 23% | 80% | 87% | – | – | – | – | – | – | – | – |
| Cc1cc(C)cc(CC(=O)N2CCC(c3nc(C(=O)N(C)[C@H](C)c4ccccc4)cs3)CC2)c1 [compound 43] | 100% | 83% | 100% | 21% | – | – | – | – | – | – | – | – |
| 2-[1-[(2,5-dichlorophenyl)acetyl]-4-piperidinyl]-N-methyl-N-[(1R)-1-phenylpropyl]-4-thiazolecarboxamide [Compound 110] | 0% | 53% | 0% | 21% | – | – | – | – | – | – | – | – |
| N-methyl-2-[1-[[5-methyl-3-(trifluoromethyl)-1H-pyrazol-1-yl]acetyl]-4-piperidinyl]-N-(1,2,3,4-tetrahydro-2-methyl-1-naphthalenyl)-4-thiazolecarboxamide [Compound 193] | 93% | 20% | 31% | 21% | – | – | – | – | – | – | – | – |
| N-methyl-2-[4-[[5-methyl-3-(trifluoromethyl)-1H-pyrazol-1-yl]acetyl]-1-piperazinyl]-N-[(1R)-1,2,3,4-tetrahydro-1-naphthalenyl]-4-thiazolecarboxamide [Compound 220] | 0% | 0% | 0% | 0% | – | – | – | – | – | – | – | – |
| O=C(NC1Cc2ccccc2C1)c1csc(C2CCN(C(=O)Cc3ccccc3Cl)CC2)n1 [compound 265] | – | – | – | – | 0 | 34 | 0 | 47 | – | – | – | – |
| N-methyl-2-[1-[[5-methyl-3-(trifluoromethyl)-1H-pyrazol-1-yl]acetyl]-4-piperidinyl]-N-[(1R,2S)-1,2,3,4-tetrahydro-2-methyl-1-naphthalenyl]-4-thiazolecarboxamide [Compound 234] | 100% | 100% | 100% | 21% | – | – | – | – | 100% | 100% | 99% | 0% |
| 2-[1-[[3,5-bis(trifluoromethyl)-1H-pyrazol-1-yl]acetyl]-4-piperidinyl]-N-methyl-N-[(1R)-1,2,3,4-tetrahydro-1-naphthalenyl]-4-thiazolecarboxamide [Compound 210] | 0% | 6% | 0% | 0% | – | – | – | – | – | – | – | – |
